According to ChEMBL document CHEMBL1201862, “PubChem BioAssay data set” (2004):
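Assay format: 96-well plates, 48-hour exposure. Here, GI50 denotes the concentration required for 50% inhibition of growth.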 Active and inactive are the calls of the source. Cut-off read from the data, not from the text of the source: active = GI50 up to about 1.1 µM and inactive = higher.

Key:
Experiment in all cases: NCI-60 cell line screen, 48 h
SR = system: SR
A549 = system: A549
NCI-H23 = system: NCI-H23
RXF 393 = system: RXF 393
K562 = system: K562
SF-268 = system: SF-268
ACHN = system: ACHN
UO-31 = system: UO-31
HL-60 = system: HL-60
OVCAR-3 = system: OVCAR-3
HOP-62 = system: HOP-62
SK-MEL-28 = system: SK-MEL-28
COLO 205 = system: COLO 205
OVCAR-4 = system: OVCAR-4
LXFL 529 = system: LXFL 529
SF-539 = system: SF-539
HOP-92 = system: HOP-92
CCRF-CEM = system: CCRF-CEM
T47D = system: T47D
MDA-MB-231 = system: MDA-MB-231

| SMILES | GI50 (SR) | GI50 (A549) | GI50 (NCI-H23) | GI50 (RXF 393) | GI50 (K562) | GI50 (SF-268) | GI50 (ACHN) | GI50 (UO-31) | GI50 (HL-60) | GI50 (OVCAR-3) | GI50 (HOP-62) | GI50 (SK-MEL-28) | GI50 (COLO 205) | GI50 (OVCAR-4) | GI50 (LXFL 529) | GI50 (SF-539) | GI50 (HOP-92) | GI50 (CCRF-CEM) | GI50 (T47D) | GI50 (MDA-MB-231) |
| --- | --- | --- | --- | --- | --- | --- | --- | --- | --- | --- | --- | --- | --- | --- | --- | --- | --- | --- | --- | --- |
| CC1=C(C(=O)Nc2ccccc2C)C(c2ccccc2C)C(C(=O)Nc2ccccc2C)=C(C)N1 | 24.2 µM (inactive) | 30.6 µM (inactive) | 21.5 µM (inactive) | 12.3 µM (inactive) | 19.8 µM (inactive) | 20.4 µM (inactive) | 15.7 µM (inactive) | 14.5 µM (inactive) | 17 µM (inactive) | 16.6 µM (inactive) | 25.2 µM (inactive) | 19.9 µM (inactive) | 24.3 µM (inactive) | 24.4 µM (inactive) | > 10 µM (inactive) | > 10 µM (inactive) | 10.1 µM (inactive) | – | – | – |
| O=C(c1ccccc1)C1OC12C(=O)Nc1c(Cl)cc(Cl)cc12 (centres undefined) | 11.6 µM (inactive) | > 64.9 µM (inactive) | 58.2 µM (inactive) | 24.4 µM (inactive) | 15.3 µM (inactive) | 35.2 µM (inactive) | 23.8 µM (inactive) | > 57.1 µM (inactive) | 16.4 µM (inactive) | 60.3 µM (inactive) | > 55.2 µM (inactive) | > 100 µM (inactive) | 19.7 µM (inactive) | 8.2 µM (inactive) | 23.6 µM (inactive) | 45.8 µM (inactive) | > 35.9 µM (inactive) | 8.65 µM (inactive) | – | – |
| O=C1c2c(O)cccc2C(C(=O)CCCCC(=O)C2c3cccc(O)c3C(=O)c3c(O)cccc32)c2cccc(O)c21 | 0.798 µM (active) | 0.483 µM (active) | 0.618 µM (active) | – | 0.661 µM (active) | 0.69 µM (active) | 0.729 µM (active) | 0.504 µM (active) | 0.485 µM (active) | 0.547 µM (active) | 0.618 µM (active) | 0.877 µM (active) | 0.759 µM (active) | 0.782 µM (active) | 0.441 µM (active) | 0.399 µM (active) | 0.627 µM (active) | 0.652 µM (active) | 0.442 µM (active) | 0.426 µM (active) |
| Cc1ccc(S(=O)(=O)Nc2cccc(C)c2C)cc1 | 52.5 µM (inactive) | 59.6 µM (inactive) | 28.1 µM (inactive) | 19 µM (inactive) | 36.6 µM (inactive) | 86.7 µM (inactive) | – | 30.8 µM (inactive) | 32.2 µM (inactive) | 34 µM (inactive) | 86.3 µM (inactive) | 30.4 µM (inactive) | 59.7 µM (inactive) | 19.5 µM (inactive) | 56.2 µM (inactive) | > 100 µM (inactive) | 29.5 µM (inactive) | 40.5 µM (inactive) | – | – |
| Cc1nc2c(o1)C(=O)c1ccccc1/C2=N\c1ccccc1 | 4.3 µM (inactive) | – | 1.38 µM (inactive) | 1.57 µM (inactive) | 2.62 µM (inactive) | 4.01 µM (inactive) | 3.18 µM (inactive) | 2.98 µM (inactive) | 2.42 µM (inactive) | 1.59 µM (inactive) | 2.45 µM (inactive) | 2 µM (inactive) | 13.9 µM (inactive) | 2.4 µM (inactive) | 3.23 µM (inactive) | 2.9 µM (inactive) | 2.27 µM (inactive) | 4.04 µM (inactive) | 2.52 µM (inactive) | 0.968 µM (active) |
| O=C1NC(=S)NC(=O)C1=Cc1ccc[nH]1 | 3.62 µM (inactive) | 26.7 µM (inactive) | 12.4 µM (inactive) | 2.2 µM (inactive) | 11.2 µM (inactive) | 22.6 µM (inactive) | 15 µM (inactive) | 16.6 µM (inactive) | 5.27 µM (inactive) | 7.38 µM (inactive) | 32.6 µM (inactive) | 24.5 µM (inactive) | 12.2 µM (inactive) | 15.3 µM (inactive) | 10.3 µM (inactive) | 15.1 µM (inactive) | 19.6 µM (inactive) | 19.2 µM (inactive) | – | – |
| C[N+]1=c2c3cccc4cccc(c(=O)n2CCC1)c43 | 18.2 µM (inactive) | 32.2 µM (inactive) | 19 µM (inactive) | 22.1 µM (inactive) | 9.02 µM (inactive) | 23.5 µM (inactive) | 22.4 µM (inactive) | 17.9 µM (inactive) | 4.36 µM (inactive) | 22.9 µM (inactive) | 31 µM (inactive) | 19.4 µM (inactive) | 16.2 µM (inactive) | 18.9 µM (inactive) | 17.6 µM (inactive) | 30.8 µM (inactive) | 28.1 µM (inactive) | 3.13 µM (inactive) | – | – |
| NC1C2(CCCCCC2)NC(=O)C12CCCCCC2 (centres undefined) | > 100 µM (inactive) | > 100 µM (inactive) | > 100 µM (inactive) | > 100 µM (inactive) | > 100 µM (inactive) | > 100 µM (inactive) | > 100 µM (inactive) | > 100 µM (inactive) | > 100 µM (inactive) | > 100 µM (inactive) | > 100 µM (inactive) | > 100 µM (inactive) | > 100 µM (inactive) | > 100 µM (inactive) | > 100 µM (inactive) | > 100 µM (inactive) | > 100 µM (inactive) | > 100 µM (inactive) | – | – |
| CCOC(=O)c1[nH]c(CN(C)Cc2[nH]c(C(=O)OCC)c(C)c2C(=O)OCc2ccccc2)c(C(=O)OCc2ccccc2)c1C | > 100 µM (inactive) | 16.6 µM (inactive) | 12.3 µM (inactive) | 3.87 µM (inactive) | 6.17 µM (inactive) | 10.7 µM (inactive) | 18.4 µM (inactive) | 4.09 µM (inactive) | 3.96 µM (inactive) | 10.4 µM (inactive) | 13 µM (inactive) | 16.9 µM (inactive) | 9.08 µM (inactive) | 6.24 µM (inactive) | 13.1 µM (inactive) | 8.47 µM (inactive) | 2.42 µM (inactive) | > 100 µM (inactive) | – | – |
| C[N+]12c3ccccc3O[B-]1(c1ccccc1)Oc1ccccc12 (centres undefined) | 10.9 µM (inactive) | 39.4 µM (inactive) | 52.8 µM (inactive) | 25.4 µM (inactive) | 28.6 µM (inactive) | 20.3 µM (inactive) | 14.8 µM (inactive) | – | 14.5 µM (inactive) | 31 µM (inactive) | 72.1 µM (inactive) | 35.1 µM (inactive) | 63.8 µM (inactive) | 31.6 µM (inactive) | 28.4 µM (inactive) | 26.9 µM (inactive) | > 100 µM (inactive) | 11.9 µM (inactive) | – | – |
